Test results: patent US20250019386A1, “PYRROLO[1,2-b]-2-PYRIDAZINONE COMPOUNDS AS 5-HT4 RECEPTOR AGONISTS” (SUVEN LIFE SCIENCES LIMITED, priority 2022, published 2025)

What was measured:
[1] = molecular target: 5-HT4 receptors (Homo sapiens (Human), UniProt Q13639); assay: Determination of EC50 values for 5-HT4 receptor (pCRE-Luc reporter assay); format: cell-based; settings: CHO cells expressing recombinant human 5-HT4 receptor and pCRE-Luc reporter; 4 h incubation; luciferase activity
Method: A stable CHO cell line expressing recombinant human 5-HT4 receptor and pCRE-Luc reporter system was used for cell-based assay. The assay offers a non-radioactive based approach to determine binding of a compound to GPCRs. In this specific assay, the level of intracellular cyclic AMP, which is modulated by activation, or inhibition of the receptor is measured. The recombinant cells harbor luciferase reporter gene under the control of cAMP response element.
The above cells were grown in 96 well clear bottom white plates in Ham's F12 medium containing 10% fetal bovine serum. Prior to the addition of compounds or standard agonist, cells were serum starved overnight. Increasing concentrations of test compounds were added to the cells in OptiMEM medium. The incubation was continued in CO2 incubator at 37° C. with 5% CO2 conditions for 4 h. Medium was removed and cells were washed with phosphate buffered saline. The cells were lysed and luciferase activity was measured in a Luminometer. Concentration-response data was generated using the luciferase assay, following incubation of cells with receptor ligands, were analyzed by subtracting basal levels (i.e. with medium alone), then normalizing values as a percentage of controls (endogenous agonist serotonin (10 μM)). […] EC50 values of the compounds were defined as the concentration required in stimulating the luciferase activity by 50%.

[2] = Rat pharmacokinetic study; format: in vivo; settings: male Wistar rats, plasma
Method: Male Wistar rats (250±50 g) were used as experimental animals. Animals were housed individually in polypropylene cages. Two days prior to study, rats were anesthetized with isoflurane for surgical placement of jugular vein catheter. Rats were randomly divided for oral (3 mg/kg and 10 mL/kg as dose volume) and intravenous (1 mg/kg and 2 mL/kg as dose volume) dosing (n=3/group) and fasted overnight before oral dosing (p.o.). However, rats allocated to intravenous dosing food and water was provided ad libitum.
Intravenous formulation was prepared by using water for injection as vehicle. For Oral, formulation was prepared by using reagent grade water as vehicle. The dose formulations were prepared freshly on the day of dosing.
After dosing of animal, each time point a 200 μL of blood sample was collected through jugular vein and replenished with an equivalent volume of normal saline. The collected blood sample was transferred into a labeled eppendorf tube containing 10 μL of sodium heparin (1000 IU/mL) as an anticoagulant. Typically blood samples were collected at following time points: 0.08, 0.25, 0.5, 1, 2, 4, 6, 8, and 24 h post dose. Blood was centrifuged at 4000 rpm for 10 min. Plasma was separated and stored frozen at −80° C. until analysis. The concentrations of the test compounds were quantified in plasma by qualified LC-MS/MS method using a suitable extraction technique. The test compounds were quantified in the calibration range around 1-2000 ng/mL in plasma. Study samples were analyzed using calibration samples in the batch and quality control samples spread across the batch.
Pharmacokinetic parameters Cmax, AUCt, t1/2 and bioavailability were calculated by non-compartmental model using standard non-compartmental model by using Phoenix WinNonlin 6.4 version Software.

[3] = Rat brain penetration study; format: in vivo; settings: brain/plasma, oral (gavage) 3 mg/kg, male Wistar rats, brain concentrations below LLOQ taken as zero, read-out: Single dose Brain Penetration (Cb/Cp)
Method: Male Wistar rats (225±25 g) were used as experimental animals. Three animals were housed in each cage. Animals were given water and food ad libitum throughout the experiment and maintained on a 12 h light/dark cycle.
Brain penetration was determined in discrete manner in rats. One day prior to dosing day, male Wistar rats were acclimatized. After acclimatization, the rats were grouped according to their weight. In each group, 3 animals were kept in individual cages and allowed free access to food and water. At each time point (0.5, 1, and 2 h) n=3 animals were used.
The compounds of formula (I) were suitably preformulated and administered orally at (free base equivalent) 3 mg/kg. Blood samples were collected via, cardiac puncture by using isoflurane anesthesia. The animals were sacrificed to collect brain tissue. Plasma was separated and brain samples were homogenized and stored frozen at −20° C. until analysis.
The concentrations of the compounds of formula (I) were quantified in plasma and brain homogenate by qualified LC-MS/MS method using a suitable extraction technique. The compounds of formula (I) were quantified in the calibration range of 1-2000 ng/mL in plasma and brain homogenate. Study samples were analyzed using calibration samples in the batch and quality control samples spread across the batch. Extent of brain-plasma ratio was calculated (Cb/Cp). Brain concentrations were found below LLOQ and a value of zero was considered for calculation purposes.

Chain of 5-HT4 receptors (Q13639 whole entry): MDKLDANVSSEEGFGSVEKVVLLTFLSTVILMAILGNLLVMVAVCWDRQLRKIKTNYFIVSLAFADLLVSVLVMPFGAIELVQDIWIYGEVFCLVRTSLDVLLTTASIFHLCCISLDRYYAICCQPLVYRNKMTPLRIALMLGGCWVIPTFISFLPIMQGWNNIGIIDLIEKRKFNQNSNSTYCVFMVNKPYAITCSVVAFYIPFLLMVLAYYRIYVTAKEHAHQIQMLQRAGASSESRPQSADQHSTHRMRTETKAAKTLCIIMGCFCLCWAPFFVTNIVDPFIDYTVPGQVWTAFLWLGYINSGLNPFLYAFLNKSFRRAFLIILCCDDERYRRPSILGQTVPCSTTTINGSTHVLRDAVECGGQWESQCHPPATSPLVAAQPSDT

Compound | EC50 [1] [nM] | other results
CC(C)n1c(=O)c(C(=O)NC2CC3CCC(C2)N3CC(O)CN(C)S(C)(=O)=O)cc2cccn21 (racemic) [Example 5, Racemic-N-{8-[2-Hydroxy-3-[(N-methyl)methanesulfonamido]propyl]-8-azabicyclo[3.2.1]oct-3-yl} [1-isopropyl-2-oxo-1,2-dihydro pyrrolo[1,2-b]pyridazine]-3-carboxamide] | 3.1 | –
CC(C)n1c(=O)c(C(=O)NC2CC3CCC(C2)N3CC(O)CN(C)S(C)(=O)=O)cc2cccn21 (racemic) [Example 6, Racemic-N-{8-[2-Hydroxy-3-[(N-methyl)methanesulfonamido]propyl]-8-azabicyclo[3.2.1]oct-3-yl} [1-isopropyl-2-oxo-1,2-dihydro pyrrolo[1,2-b]pyridazine]-3-carboxamide L(+)-tartarate] | 3.3 | –
CC(C)n1c(=O)c(C(=O)NC2CC3CCC(C2)N3C[C@@H](O)CN(C)S(C)(=O)=O)cc2cccn21 (single isomer, unassigned) [Example 1] | 2 | –
CC(C)n1c(=O)c(C(=O)NC2CC3CCC(C2)N3C[C@H](O)CN(C)S(C)(=O)=O)cc2cccn21 (single isomer, unassigned) [Example 3] | 9 | –
CC(C)n1c(=O)c(C(=O)NC2CC3CCC(C2)N3C[C@H](O)CN(C)S(C)(=O)=O)cc2cccn21.O=C(O)C(O)C(O)C(=O)O (single isomer, unassigned) [Example 4] | 10 | AUC(0-t) ([2]; intravenous (bolus), 1 mg/kg): 124 ± 7.9 ng·h/mL; half-life ([2]; intravenous (bolus), 1 mg/kg): 1.7 ± 0.3 h; AUC(0-t) ([2]; oral (gavage), 3 mg/kg): 44 ± 22 ng·h/mL; Cmax ([2]; oral (gavage), 3 mg/kg): 11 ± 6.6 ng/mL; bioavailability ([2]; oral 3 mg/kg vs intravenous 1 mg/kg): 12 ± 5.9%; Kp [3]: 0
CC(C)n1c(=O)c(C(=O)NC2CC3CCC(C2)N3C[C@@H](O)CN(C)S(C)(=O)=O)c(O)c2cccn21 (stereo partly drawn) [Example 7, (R)-N-{8-[2-Hydroxy-3-[(N-methyl)methanesulfonamido]propyl]-8-azabicyclo[3.2.1]oct-3-yl} [4-hydroxy-1-isopropyl-2-oxo-1,2-dihydro pyrrolo[1,2-b]pyridazine]-3-carboxamide] | 10.1 | –
CC(C)n1c(=O)c(C(=O)NC2CC3CCC(C2)N3C[C@@H](O)CN(C)S(C)(=O)=O)c(O)c2cccn21 (stereo partly drawn) [Example 8, (R)-N-{8-[2-Hydroxy-3-[(N-methyl)methanesulfonamido]propyl]-8-azabicyclo[3.2.1]oct-3-yl} [4-hydroxy-1-isopropyl-2-oxo-1,2-dihydro pyrrolo[1,2-b]pyridazine]-3-carboxamide L-(+)-tartarate] | 6.1 | –
CC(C)n1c(=O)c(C(=O)NC2CC3CCC(C2)N3C[C@@H](O)CNS(C)(=O)=O)cc2cccn21 (stereo partly drawn) [Example 14, (R)-N-{8-[2-Hydroxy-3-(methanesulfonamido)propyl]-8-azabicyclo[3.2.1]oct-3-yl} [1-isopropyl-2-oxo-1,2-dihydro pyrrolo[1,2-b]pyridazine]-3-carboxamide L-(+)-tartarate] | 6.3 | –
CC(=O)N(C)C[C@H](O)CN1C2CCC1CC(NC(=O)c1cc3cccn3n(C(C)C)c1=O)C2 (stereo partly drawn) [Example 15, (R)-N-{8-[2-Hydroxy-3-[(N-methyl)acetamido]propyl]-8-azabicyclo[3.2.1]oct-3-yl} [1-isopropyl-2-oxo-1,2-dihydro pyrrolo[1,2-b]pyridazine]-3-carboxamide] | 8 | –
CC(C)n1c(=O)c(C(=O)NC2CC3CCC(C2)N3C[C@@H](O)CN2CCN(S(C)(=O)=O)CC2)cc2cccn21 (stereo partly drawn) [Example 18, (R)-N-{8-[2-Hydroxy-3-[(1-methanesulfonylpiperazin)-4-yl]propyl]-8-azabicyclo[3.2.1]oct-3-yl} [1-isopropyl-2-oxo-1,2-dihydro pyrrolo[1,2-b]pyridazin]-3-carboxamide L(+)tartarate] | 2.4 | –
CC(C)n1c(=O)c(C(=O)NC2CC3CCC(C2)N3C[C@@H](O)CN2CCN(S(C)(=O)=O)CC2)c(O)c2cccn21 (stereo partly drawn) [Example 20, (R)-N-{8-[2-Hydroxy-3-[(1-methanesulfonylpiperazin)-4-yl]propyl]-8-azabicyclo[3.2.1]oct-3-yl} [4-hydroxy-1-isopropyl-2-oxo-1,2-dihydro pyrrolo[1,2-b]pyridazin]-3-carboxamide L-(+)-tartarate] | 14 | –
CC(C)n1c(=O)c(C(=O)NC2CC3CCC(C2)N3CCCN(C)S(C)(=O)=O)cc2cccn21 (stereo not shown) [Example 22, N-{8-[3-[(N-Methyl)methanesulfonamido]propyl]-8-azabicyclo[3.2.1]oct-3-yl} [1-isopropyl-2-oxo-1,2-dihydro pyrrolo[1,2-b]pyridazine]-3-carboxamide] | 58 | –
CC(C)n1c(=O)c(C(=O)NC2CC3CCC(C2)N3CCCNS(C)(=O)=O)cc2cccn21 [Example 24, N-{8-[3-[methanesulfonamido]propyl]-8-azabicyclo[3.2.1]oct-3-yl} [1-isopropyl-2-oxo-1,2-dihydro pyrrolo[1,2-b]pyridazine]-3-carboxamide L-(+)-tartarate] | 11 | –
CC(C)n1c(=O)c(C(=O)NC2CC3CCC(C2)N3CCCNS(=O)(=O)C(C)C)cc2cccn21 (stereo not shown) [Example 25, N-{8-[3-Isopropylsulfonylaminopropyl]-8-azabicyclo[3.2.1]oct-3-yl} [1-isopropyl-2-oxo-1,2-dihydro pyrrolo[1,2-b]pyridazin]-3-carboxamide] | 13 | –
CC(C)n1c(=O)c(C(=O)NC2CC3CCC(C2)N3CCNS(=O)(=O)C(C)C)cc2cccn21 (stereo not shown) [Example 29, N-{8-[2-Isopropylsulfonylaminoethyl]-8-azabicyclo[3.2.1]oct-3-yl} [1-isopropyl-2-oxo-1,2-dihydro pyrrolo[1,2-b]pyridazin]-3-carboxamide] | 16 | –
CC(=O)NCCCN1C2CCC1CC(NC(=O)c1cc3cccn3n(C(C)C)c1=O)C2 (stereo not shown) [Example 31, N-{8-[3-Acetamidopropyl]-8-azabicyclo[3.2.1]oct-3-yl} [1-isopropyl-2-oxo-1,2-dihydro pyrrolo[1,2-b]pyridazin]-3-carboxamide] | 35.1 | –
COC(=O)NCCCN1C2CCC1CC(NC(=O)c1cc3cccn3n(C(C)C)c1=O)C2 (stereo not shown) [Example 33, N-{8-[3-Carbomethoxyaminopropyl]-8-azabicyclo[3.2.1]oct-3-yl} [1-isopropyl-2-oxo-1,2-dihydro pyrrolo[1,2-b]pyridazin]-3-carboxamide] | 12 | –
COC(=O)NCCN1C2CCC1CC(NC(=O)c1cc3cccn3n(C(C)C)c1=O)C2 (stereo not shown) [Example 35, N-{8-[2-Carbomethoxyaminomethyl]-8-azabicyclo[3.2.1]oct-3-yl} [1-isopropyl-2-oxo-1,2-dihydro pyrrolo[1,2-b]pyridazin]-3-carboxamide] | 12 | –
CC(=O)N1CCN(CCN2C3CCC2CC(NC(=O)c2cc4cccn4n(C(C)C)c2=O)C3)CC1 [Example 38, N-{8-[2-(4-Acetylpiperazin-1-yl)ethyl]-8-azabicyclo[3.2.1]oct-3-yl} [1-isopropyl-2-oxo-1,2-dihydro pyrrolo[1,2-b]pyridazine]-3-carboxamide L-(+)-tartrate] | 15.4 | –
